Patent US20240294522A1 (Lead Discovery Center GmbH, priority 2021, published 2024)

Assays:
GRK2 = target: T1, GRK2 (Homo sapiens, UniProt P25098); assay: Lance Kinase Activity Assay, GRK2; settings: biochemical Lance kinase activity assay; class symbols A-F; read-out: GRK2 LANCE Assay (IC-50)
T1 construct: purchased Thermo Scientific
T1 sequence (P25098 1-689): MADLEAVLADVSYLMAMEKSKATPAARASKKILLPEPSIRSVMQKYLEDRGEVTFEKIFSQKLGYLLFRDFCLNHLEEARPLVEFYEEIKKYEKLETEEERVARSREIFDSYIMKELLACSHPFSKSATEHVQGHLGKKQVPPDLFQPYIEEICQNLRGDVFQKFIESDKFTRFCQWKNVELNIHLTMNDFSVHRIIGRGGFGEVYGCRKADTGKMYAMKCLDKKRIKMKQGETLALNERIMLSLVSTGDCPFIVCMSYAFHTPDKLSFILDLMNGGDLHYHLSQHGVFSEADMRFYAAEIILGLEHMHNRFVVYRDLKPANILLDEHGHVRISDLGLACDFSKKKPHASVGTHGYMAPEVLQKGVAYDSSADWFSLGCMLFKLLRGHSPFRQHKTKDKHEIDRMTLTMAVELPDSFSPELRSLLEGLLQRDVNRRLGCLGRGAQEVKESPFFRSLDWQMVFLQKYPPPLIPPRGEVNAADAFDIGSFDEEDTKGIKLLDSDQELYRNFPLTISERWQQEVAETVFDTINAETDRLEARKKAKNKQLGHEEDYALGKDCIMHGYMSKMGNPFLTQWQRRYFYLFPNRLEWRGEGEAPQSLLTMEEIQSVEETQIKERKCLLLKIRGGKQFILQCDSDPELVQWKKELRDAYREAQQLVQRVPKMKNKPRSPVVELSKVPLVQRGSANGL
Summary of the method: (§1)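 IC50s from sigmoidal dose-response over 0.0025-10 μM compound, with phosphorylated ULight substrate detected by Eu anti-phospho antibody FRET after EDTA quench.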

GRK5 = target: T2, GRK5 (Homo sapiens, UniProt P34947); assay: Lance Kinase Activity Assay, GRK5; settings: biochemical Lance kinase activity assay; class symbols A-F; read-out: GRK5 LANCE Assay (IC-50)
T2 construct: purchased Thermo Scientific
T2 sequence (P34947 whole entry): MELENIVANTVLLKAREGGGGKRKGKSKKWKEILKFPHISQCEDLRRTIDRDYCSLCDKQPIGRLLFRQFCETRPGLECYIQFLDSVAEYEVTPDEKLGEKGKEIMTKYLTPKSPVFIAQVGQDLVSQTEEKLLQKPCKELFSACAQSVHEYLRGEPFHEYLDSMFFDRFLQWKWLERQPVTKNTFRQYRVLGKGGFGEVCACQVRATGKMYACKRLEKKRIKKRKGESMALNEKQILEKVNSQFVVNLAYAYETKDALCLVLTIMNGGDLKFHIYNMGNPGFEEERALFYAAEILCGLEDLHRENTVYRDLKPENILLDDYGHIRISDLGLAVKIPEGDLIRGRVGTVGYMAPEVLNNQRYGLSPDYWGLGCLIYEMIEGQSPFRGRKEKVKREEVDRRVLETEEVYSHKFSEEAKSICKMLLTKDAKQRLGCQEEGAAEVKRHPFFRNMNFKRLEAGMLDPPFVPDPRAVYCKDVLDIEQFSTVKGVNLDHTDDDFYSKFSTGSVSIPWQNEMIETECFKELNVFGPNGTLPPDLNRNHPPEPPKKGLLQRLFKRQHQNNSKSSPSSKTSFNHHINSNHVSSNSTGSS
Summary of the method: as §1

[1] = system: neonatal rat ventricular cardiac myocytes (NRVCMs); assay: In vitro cardiomyocyte hypertrophy assay; assay type: cell-based, Wistar rats; settings: inhibition of cellular hypertrophy, NRVCMs stimulated with phenylephrine 20 μM and leukemia inhibitory factor 50 ng/ml, 96 h, read-out: Hypertrophy Assay (IC-50)
Description: 5-6 days old Wistar rats were sacrificed by decapitation and neonatal rat ventricular cardiac myocytes (NRVCMs) were prepared using the Neonatal heart dissociation kit (Miltenyi Biotec) according to the manufacturer's instructions. The cardiac single cell suspension was resuspended in DMEM low glucose medium supplemented with 2% fetal bovine serum (FBS) and 50 μg/ml penicillin/streptomycin. 1500 cells/well were seeded on 0.1% gelatin-coated 384-well plates and incubated in medium at 37° C. and 5% CO2 for 24 h prior to the addition of test compounds to the cells at titrated concentrations. Cellular hypertrophy was then stimulated by adding phenylephrine and leukemia inhibitory factor at final concentrations of 20 μM and 50 ng/ml, respectively, and the cells were incubated for another 96 h. For immunocytochemistry, cells were fixed with 4% formaldehyde on day 5 of compound treatment and cardiomyocytes were stained with antibodies against a-actinin while cell nuclei were stained with DAPI. Image acquisition and phenotypic analysis was performed using an Image-Xpress Micro XL automated microscope (Molecular Devices).
Inhibition of cellular hypertrophy is indicated as IC50 [nM]. Compounds having an activity designated as “A” provided an IC50≤500 nM; compounds having an activity designated as “B” provided an 500 nM<IC50≤1000 nM; compounds having an activity designated as “C” provided an IC50>1000 nM.

Structure (SMILES)	IC50 (GRK2) [nM]	IC50 (GRK5) [nM]	IC50 [1] [nM]
C[C@@H](NC(=O)/C(C#N)=C/c1c[nH]c2ncc(-c3cnn(C)c3)cc12)c1ccc2c(c1)OCO2 [Example 252, (R,E)-N-(1-(benzo[d][1,3]dioxol-5-yl)ethyl)-2-cyano-3-(5-(1-methyl-1H-pyrazol-4-yl)-1H-pyrrolo[2,3-b]pyridin-3-yl)acrylamide]	500 to 1000	≤ 50	≤ 500
COc1ccc([C@@H](C)NC(=O)/C=C/c2c[nH]c3ncc(-c4cccc(SC)c4)cc23)cc1OC [Example 254, (R,E)-N-(1-(3,4-dimethoxyphenyl)ethyl)-3-(5-(3-(methylthio)phenyl)-1H-pyrrolo[2,3-b]pyridin-3-yl)acrylamide]	> 10000	≤ 50	> 1000
